The structures appear in SMILES notation.

The target in one assay is T1, human H1 receptor (Homo sapiens, UniProt P35367).
T1 construct: expressed in transfected cells
Briefly: Histamine H1 functional antagonist assay: determination of functional pKi values (FLIPR). It is filed as cell-based. Particulars: CHO cells expressing human H1 receptor, histamine at EC80, FLIPR, read-out: average pKi (pKb) at H1 (converted). Here is the method: 1. Generation of Histamine H1 Cell Line The human H1 receptor is cloned using known procedures described in the literature [Biochem. Biophys. Res. Commun., 201(2):894 (1994)]. Chinese hamster ovary (CHO) cells stably expressing the human H1 receptor are generated according to known procedures described in the literature [Br. J. Pharmacol., 117(6):1071 (1996)].
The histamine H1 cell line is seeded into non-coated black-walled clear bottom 384-well tissue culture plates in alpha minimum essential medium (Gibco/Invitrogen, cat no. 22561-021), supplemented with 10% dialysed foetal calf serum (Gibco/Invitrogen cat no. 12480-021) and 2 mM L-glutamine (Gibco/Invitrogen cat no 25030-024) and is maintained overnight at 5% CO2, 37° C.
Excess medium is removed from each well to leave 10 μl. 30 μl loading dye (250 μM Brilliant Black, 2 μM Fluo-4 diluted in Tyrodes buffer+probenecid (145 mM NaCl, 2.5 mM KCl, 10 mM HEPES, 10 mM D-glucose, 1.2 mM MgCl2, 1.5 mM CaCl2, 2.5 mM probenecid, pH adjusted to 7.40 with NaOH 1.0 M)) is added to each well and the plates are incubated for 60 min at 5% CO2, 37° C.
10 μl of test compound, diluted to the required concentration in Tyrodes buffer+probenecid (or 10 μl Tyrodes buffer+probenecid as a control) is added to each well and the plate is incubated for 30 min at 37° C., 5% CO2. The plates are then placed into a FLIPR™ (Molecular. Devices, UK) to monitor cell fluorescence (λex=488 nm, λEM=540 nm) in the manner described in Sullivan et al., (In: Lambert DG (ed.), Calcium Signaling Protocols, New Jersey: Humana Press, 1999, 125-136) before and after the addition of […] at a concentration that results in the final assay concentration of histamine being EC80.
Functional antagonism is indicated by a suppression of histamine induced increase in fluorescence, as measured by the FLIPR™ system (Molecular Devices). By means of concentration effect curves, functional affinities are determined using standard pharmacological mathematical analysis.

A further assay deals with T2, histamine H3 receptor (Homo sapiens, UniProt Q9Y5N1).
T2 construct: expressed in transfected cells; host or cells: CHO K1 cells with pSwitch/pGene (GeneSwitch), clone 3H3, mifepristone-induced; membranes
As to the kind of experiment: Histamine H3 functional antagonist assay ([35S]-GTPγS, membranes). It is filed as biochemical. Particulars: histamine at EC80, read-out: average pKi (pKb) at H3 (converted). As to the method:
The histamine H3 cDNA is isolated from its holding vector, pcDNA3.1 TOPO (InVitrogen), by restriction digestion of plasmid DNA with the enzymes BamH1 and Not-1 and is ligated into the inducible expression vector pGene (InVitrogen) digested with the same enzymes. The GeneSwitch™ system (a system where in transgene expression is switched off in the absence of an inducer and switched on in the presence of an inducer) is performed as described in U.S. Pat. Nos. 5,364,791; 5,874,534; and 5,935,934. Ligated DNA is transformed into competent DH5α E. coli host bacterial cells and is plated onto Luria Broth (LB) agar containing Zeocin™ (an antibiotic which allows the selection of cells expressing the sh ble gene which is present on pGene and pSwitch) at 50 μgml^−1. Colonies containing the re-ligated plasmid are identified by restriction analysis. […]
10-14 days post selection, 10 nM Mifepristone (InVitrogen) is added to the culture medium to induce the expression of the receptor. […] Receptor bound antibody is detected by incubation of the cells for 60 min on ice with a goat anti rabbit antibody, conjugated with Alexa 488 fluorescence marker (Molecular Probes). Following two further washes with Sorting Medium, cells are filtered through a […] Filcon™ (BD Biosciences) and then are analysed on a FACS Vantage SE Flow Cytometer fitted with an Automatic Cell Deposition Unit. […]
For orientation: Binding of GTPγS marks nucleotide exchange on a G protein.

T1 sequence (P35367 whole entry): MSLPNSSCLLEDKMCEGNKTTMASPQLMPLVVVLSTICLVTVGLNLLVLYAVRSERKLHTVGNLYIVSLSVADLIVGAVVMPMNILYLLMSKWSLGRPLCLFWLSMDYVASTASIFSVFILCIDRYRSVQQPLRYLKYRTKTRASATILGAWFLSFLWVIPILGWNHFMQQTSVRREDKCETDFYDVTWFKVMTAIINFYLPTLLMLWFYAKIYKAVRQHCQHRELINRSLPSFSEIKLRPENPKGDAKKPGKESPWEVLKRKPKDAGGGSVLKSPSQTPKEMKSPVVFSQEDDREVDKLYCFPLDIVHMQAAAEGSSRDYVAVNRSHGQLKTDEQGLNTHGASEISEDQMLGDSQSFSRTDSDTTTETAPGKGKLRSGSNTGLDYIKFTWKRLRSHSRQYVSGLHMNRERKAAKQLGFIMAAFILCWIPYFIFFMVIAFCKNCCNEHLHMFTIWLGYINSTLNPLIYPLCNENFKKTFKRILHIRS
T2 sequence (Q9Y5N1 whole entry, species assumed): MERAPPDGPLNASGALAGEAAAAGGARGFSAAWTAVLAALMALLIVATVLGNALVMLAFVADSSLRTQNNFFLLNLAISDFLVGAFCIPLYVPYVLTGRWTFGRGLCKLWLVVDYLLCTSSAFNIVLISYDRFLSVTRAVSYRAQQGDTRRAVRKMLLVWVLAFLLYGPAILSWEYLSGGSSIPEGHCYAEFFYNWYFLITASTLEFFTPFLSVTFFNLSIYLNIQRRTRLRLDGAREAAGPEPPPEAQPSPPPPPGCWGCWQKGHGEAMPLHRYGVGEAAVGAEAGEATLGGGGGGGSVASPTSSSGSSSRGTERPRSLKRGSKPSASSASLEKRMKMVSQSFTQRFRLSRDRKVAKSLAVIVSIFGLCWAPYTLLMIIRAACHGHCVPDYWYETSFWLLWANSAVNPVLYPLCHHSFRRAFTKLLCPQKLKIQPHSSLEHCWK

For `COCCC(=O)NCCN1CCC[C@@H]1Cn1nc(Cc2ccc(Cl)cc2)c2ccccc2c1=O.O=CO` [Example 35, N-[2-((2R)-2-{[4-[(4-Chlorophenyl)methyl]-1-oxo-2(1H)-phthalazinyl]methyl}-1-pyrrolidinyl)ethyl]-3-(methyloxy)propanamide, formate salt], the Ki was below 316 nM at human H1 receptor and above 316 nM on histamine H3 receptor.
For `Cl.O=C(CC(F)(F)F)NCCN1CCC[C@@H]1Cn1nc(Cc2ccc(Cl)cc2)c2ccccc2c1=O` [Example 36a, N-[2-((2R)-2-{[4-[(4-Chlorophenyl)methyl]-1-oxo-2(1H)-phthalazinyl]methyl}-1-pyrrolidinyl)ethyl]-3,3,3-trifluoropropanamide, hydrochloride] the same measures were below 31.6 nM and above 316 nM.

The record behind these values is patent publication US20100184770A1, “COMPOUNDS” (Glaxo Group Limited, priority 2006, published 2010).
